Publication PMC8268740, “Evaluation of Firefly and Renilla Luciferase Inhibition in Reporter-Gene Assays: A Case of Isoflavonoids” (International Journal of Molecular Sciences, 2021)
Several values for one entry are separate records, joined by “and”; a condition that tells them apart may be missing. Equal entries are not always repeated. Entries after “also recorded” stand apart in the source; their conditions may differ. Where two headings read alike, the source gives them in different places.

Tests used:
[1] = target: T1, firefly luciferase (FLuc) (Photinus pyralis, UniProt P08659); assay: Cell-lysate (AR-EcoScreen) in vitro firefly luciferase inhibition assay; assay type: biochemical; details: for IC50 / FLuc inhibition (result in words): AR-EcoScreen cell lysate; for inhibition at 1 µM / inhibition at 10 µM / inhibition at 100 µM: read-out: inhibition of FLuc; for FLuc inhibition (result in words): screened at 1, 10, 100 µM
T1 construct: host or cells: AR-EcoScreen (Chinese hamster ovary derived), lysate after dihydrotestosterone induction
Experimental: (§1) Preparation of cell lysates for use in the luciferase inhibition assays was through seeding of 4–7 ×10^6 cells into a 150 cm^2 growth flask (an equivalent surface density to that indicated in OECD TG 458 [10]) for 24 h at 37 °C under 5% CO2. Upon incubation, dihydrotestosterone (Sigma-Aldrich, St. Louis, MO, USA) diluted in DMSO was added at 10 nM final concentration. This was followed by another 24-h incubation, removal of medium, and addition of 9.4 mL reporter lysis buffer (Promega, Madison, WI, USA). The growth flask was then stored at −80 °C until use.
The cell lysate was thawed at room temperature. Stock solutions of the isoflavonoids and positive controls were dissolved in DMSO and 10-fold serially diluted in the cell lysate to the final concentration with 1% DMSO. Twenty microliters of each isoflavonoid in the cell lysate were transferred to 96-well plates in triplicate and incubated for 30 min at room temperature. Then, 30 µL Luciferase Assay Reagent II (contained in the Dual-Luciferase Reporter Assay System; Promega, Madison, WI, USA) was added to each well, and the FLuc luminescence was measured using a microplate reader (Synergy 4 hybrid; BioTek, Winooski, VT, USA). The addition of 30 µL of Stop & Glo Reagent (contained in the Dual-Luciferase Reporter Assay System) followed, and the RLuc luminescence was recorded using the microplate reader (Synergy 4 hybrid; BioTek, Winooski, VT, USA).
The data from the in vitro luciferase inhibition assays in the AR-EcoScreen cell lysate were processed by first subtracting the background value (i.e., reporter lysis buffer alone) and then normalization to the vehicle control (1% DMSO), and are expressed as means ± standard deviation of three independent repeats carried out as technical triplicates. […] Statistical significance as compared to the vehicle control, considered: *, p ≤ 0.05; **, p ≤ 0.01; and ****, p ≤ 0.0001, using one-way ANOVA, followed by post-hoc Dunnett’s tests.

RLuc = details: read-out: IC50 RLuc inhibition; in the presence of 10 µM coelenterazine; cited from earlier work
[2] = target: T2, Renilla luciferase (RLuc) (Renilla reniformis, UniProt P27652); assay: Cell-lysate (AR-EcoScreen) in vitro Renilla luciferase inhibition assay; assay type: biochemical
T2 construct: host or cells: AR-EcoScreen (Chinese hamster ovary derived), lysate
T2 sequence (P27652 1-311): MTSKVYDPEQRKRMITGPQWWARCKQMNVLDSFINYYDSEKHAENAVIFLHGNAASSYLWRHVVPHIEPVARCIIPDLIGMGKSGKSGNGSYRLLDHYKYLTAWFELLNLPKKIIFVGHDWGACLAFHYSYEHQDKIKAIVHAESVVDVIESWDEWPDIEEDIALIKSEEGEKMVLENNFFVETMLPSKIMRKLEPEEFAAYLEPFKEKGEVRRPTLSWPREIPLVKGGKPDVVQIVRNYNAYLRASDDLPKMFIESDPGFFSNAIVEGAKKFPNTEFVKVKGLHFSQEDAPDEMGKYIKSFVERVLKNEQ
Experimental: as §1
The cell lysate was thawed at room temperature. Stock solutions of the isoflavonoids and positive controls were dissolved in DMSO and 10-fold serially diluted in the cell lysate to the final concentration with 1% DMSO. […] Then, 30 µL Luciferase Assay Reagent II (contained in the Dual-Luciferase Reporter Assay System; Promega, Madison, WI, USA) was added to each well, and the FLuc luminescence was measured using a microplate reader (Synergy 4 hybrid; BioTek, Winooski, VT, USA). The addition of 30 µL of Stop & Glo Reagent (contained in the Dual-Luciferase Reporter Assay System) followed, and the RLuc luminescence was recorded using the microplate reader (Synergy 4 hybrid; BioTek, Winooski, VT, USA). […]

isolated FLuc = details: cited from earlier work
[3] = read-out: IC50 firefly luciferase inhibition
[4] = IC50 firefly luciferase inhibition

T1 sequence (P08659 whole entry): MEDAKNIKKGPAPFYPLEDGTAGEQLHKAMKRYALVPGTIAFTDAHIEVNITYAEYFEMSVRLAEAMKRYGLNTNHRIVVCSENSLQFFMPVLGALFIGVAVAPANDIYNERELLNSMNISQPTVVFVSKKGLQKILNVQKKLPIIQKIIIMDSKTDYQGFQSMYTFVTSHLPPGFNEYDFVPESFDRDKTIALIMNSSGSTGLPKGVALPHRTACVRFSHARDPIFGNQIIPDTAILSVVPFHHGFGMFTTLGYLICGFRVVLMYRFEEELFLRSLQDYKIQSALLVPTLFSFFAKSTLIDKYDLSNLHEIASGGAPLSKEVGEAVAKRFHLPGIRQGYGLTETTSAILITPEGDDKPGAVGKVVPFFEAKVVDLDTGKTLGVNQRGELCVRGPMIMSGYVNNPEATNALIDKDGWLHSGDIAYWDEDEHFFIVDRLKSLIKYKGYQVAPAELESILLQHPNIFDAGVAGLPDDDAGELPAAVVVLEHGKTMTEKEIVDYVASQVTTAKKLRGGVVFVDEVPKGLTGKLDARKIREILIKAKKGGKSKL

For `COc1ccc(-c2coc3cc(O)cc(O)c3c2=O)cc1` [Biochanin A, biochanin A], the IC50 [1, 3] was 0.636 µM and 0.64 µM and the inhibition at 1 µM [1] was 62.4%.

Compound `COc1ccc(-c2coc3cc(O)ccc3c2=O)cc1O` [Calycosin] has an IC50 [1, 4] of 4.96 µM and an inhibition at 10 µM [1] of 66.2%.

In the case of `O=c1c(-c2ccc(O)cc2)coc2cc(O)ccc12` [Daidzein], the IC50 [1, 4] is reported as 51.4 µM and the inhibition at 100 µM [1] is reported as 60.9%.

With `O=c1c(-c2ccc(O)cc2)coc2cc(O[C@@H]3O[C@H](CO)[C@@H](O)[C@H](O)[C@H]3O)ccc12` [Daidzin, daidzin] the “FLuc inhibition (result in words)” value [1] was “inactive; also recorded: did not show inhibition of FLuc at all”.

`COc1ccc(-c2coc3cc(O)ccc3c2=O)cc1` [Formononetin, formononetin] showed an IC50 [1, 3] of 3.88 µM and an inhibition at 1 µM [1] of 32.4%.

In the case of `O=c1c(-c2ccc(O)cc2)coc2cc(O)cc(O)c12` [Genistein, genistein], the IC50 [1, 4] is reported as 36.9 µM and the inhibition at 100 µM [1] is reported as 71.2%.

For `O=c1c(-c2ccc(O)cc2)coc2cc(O[C@@H]3O[C@H](CO)[C@@H](O)[C@H](O)[C@H]3O)cc(O)c12` [Genistin, genistin], the “FLuc inhibition (result in words)” value [1] was “inactive” and the “FLuc inhibition (result in words)” value ([1]; listed as genistin) was “did not show inhibition of FLuc at all”.

Compound `COc1cc2c(=O)c(-c3ccc(O)cc3)coc2cc1O` [Glycitein] has an IC50 [1, 4] of 26.4 µM and an inhibition at 10 µM [1] of 30.1%.

For `COc1cc2c(=O)c(-c3ccc(O)cc3)coc2cc1O[C@@H]1O[C@H](CO)[C@@H](O)[C@H](O)[C@H]1O` [Glycitin, glycitin], the “FLuc inhibition (result in words)” value [1] was “inactive; also recorded: did not show inhibition of FLuc at all”.

In the case of `O=S(=O)(NCCNC/C=C/c1ccc(Br)cc1)c1cccc2cnccc12` [H-89], the IC50 (RLuc) is given as 10 µM and the IC50 [2] is given as 338 µM.

Work on `COc1cc(O)c2c(=O)c(-c3ccc(O)cc3)coc2c1` [Prunetin, prunetin] yielded an IC50 [1, 4] of 16.3 µM and an inhibition at 10 µM [1] of 40.7%.

In the case of `Oc1ccc(/C=C/c2cc(O)cc(O)c2)cc1` [Resveratrol, resveratrol], the IC50 (isolated FLuc) is listed as 2 µM.

For `Oc1ccc([C@H]2COc3cc(O)ccc3C2)cc1` [S-Equol, S-equol], the “FLuc inhibition (result in words)” value [1] was “inactive; also recorded: did not show inhibition of FLuc at all”.
